From patent publication US12564595B2, “Prophylactic and therapeutic pharmaceutical agent for HIV infectious diseases characterized by comprising combination of integrase inhibitor and anti-HIV agent” (Shionogi & Co., Ltd., priority 2019, dated 2026) come the findings set out here.

The nature of series [1]: Test Example 8: metabolic stability test. It counts as in vitro ADME, human. The conditions noted are these: pooled human liver microsomes, 30 min at 37° C., NADPH, compound concentration 0.5 μmol/L. As to the method: The extent of metabolization of the compound according to the present invention in the liver was evaluated by reacting commercially available pooled human liver microsomes with the compound according to the present invention for a fixed time and calculating the remaining percentage by comparing the reaction sample with an unreacted sample.
The reaction (oxidative reaction) was conducted for 0 min or 30 min at 37° C. in the presence of 1 mmol/L of NADPH, in a 0.2 mL buffer solution containing 0.5 mg of human liver microsome protein/mL (50 mmol/L Tris-HCl pH 7.4, 150 mmol/L potassium chloride, 10 mmol/L magnesium chloride). After the reaction, 50 μL of reaction liquid were added to 100 μL of methanol/acetonitrile=1/1 (v/v) solution, mixed, and centrifuged for 15 minutes at 3000 rpm. The compound according to the present invention in the centrifuged supernatant was quantified using LC/MS/MS or solid phase extraction (SPE)/MS; the residual amount of the compound according to the present invention after the reaction was calculated, taking the amount of the compound at the 0 min reaction point as 100%.

The test system of series [2] is HIV mutant strain 1 (E138K/G140S/Q148H/N155H). Description: Test Example 2: resistance evaluation test (HeLa-CD4 reporter), mutant strain 1. Conditions: FC=EC50 of mutant strain/EC50 of wild strain; HeLa-CD4 cells. The format is cell-based. As to the method: (§1) A serial dilution series of test samples in 96-well microplates was prepared (50 […]).
(§2) 2.5×10^4/mL of HeLa-CD4 cell suspension was dispensed into each of the microplates containing test sample, in the amount of 100 μL/well, and HIV virus liquid (wild strain and mutant strain) was then dispensed in an amount of 50 μL/well. Mixing was performed using a plate mixer and culturing was performed for three days in a CO2 incubator. After removing the cultured supernatant of each well by suction, 100 μL of the cell solution buffer in the reporter measurement kit was dispensed thereto, and freezing was conducted in a refrigerator (−80° C.). The plates frozen in the refrigerator were defrosted at room temperature, then mixed using a plate mixer and centrifuged for 5 min at 1,200 rpm. The supernatant of each well was divided to 96-well microplates (BLACK) in the amount of 20 μL in each case. The chemiluminescence reagent in the reporter assay kit was dispensed in the amount of 100 μL in each case, and, after reacting for about 1 h at room temperature, the amount of luminescence was measured using a MicroBeta TRILUX.
(§3) The degree of resistance (fold change (FC)) of each mutant strain was also calculated using the following formula. FC=EC50 of mutant strain/EC50 of wild strain (Results)
(§4) The results of the example compounds relating to formula (I) of (A) are shown below. The […] in respect of mutant strain 1 (E138K/G140S/Q148H/N155H) and the FC in respect of mutant strain 2 (E92Q/E138T/G140S/Q148H) are shown in the Table.

A further series has as its system HIV. Description: microbe, parasite or virus in culture. It counts as cell-based. The conditions noted are these: Human immunodeficiency virus 1, MT4, 96 h, read-out: EC50 (50% HIV inhibition concentration), MT-4 cells, HIV, cultured four days, MTT. As to the method: A serial dilution series of test samples was prepared in 96-well microplates (50 μL/well).
100 μL/well in each case were dispensed onto plates having test samples of 2.5×10^5/mL MT-4 cell suspension, and HIV virus solution was then dispensed thereto in the amount of 50 μL/well. Mixing was performed using a plate mixer and culturing was performed for four days in a CO2 incubator. MTT (3-(4,5-dimethylthiazol-2-yl)-2,5-diphenyltetrazolium bromide) liquid was dispensed into each well in the amount of 30 μL in each case. The reaction was conducted for 1 h in a CO2 incubator. 150 μL of supernatant were removed from each well, taking care not to aspirate any cells. 150 μL of cell solution were added, and thorough mixing was performed with a plate mixer until all the cells had been dissolved. The optical absorbance of the mixed plates was measured at two wavelengths: 560 nm/690 nm, with a microplate reader.

Series [3] concerns HIV mutant strain 2 (E92Q/E138T/G140S/Q148H). Put plainly: Test Example 2: resistance evaluation test (HeLa-CD4 reporter), mutant strain 2. Conditions: FC=EC50 of mutant strain/EC50 of wild strain; HeLa-CD4 cells. The format is cell-based. As to the method:
as §1, §2, §3, §4

Where [4] appears, read: compounds of formula (I) of (A).
Setting [5] is: compounds of formula (I′) of (B).

Like-named read-outs stand apart in the source and are kept apart here.

`CCN1C(=O)c2c(O)c(=O)c(C(=O)NCc3ccc(F)cc3F)cn2N2CC[C@@H](C)C[C@@H]12` [II-068]: in series [1], the Remaining percentage is 82.9%. The “FC in respect of mutant strain 1 (E138K/G140S/Q148H/N155H)” value (shortened to “FC … (E138K/G140S/Q148H/N155H)”) in series [2] is 7. Moreover, the EC50 with HIV (setting [4]) is 0.25 nM. For the same molecule, the “FC in respect of mutant strain 2 (E92Q/E138T/G140S/Q148H)” value (shortened to “FC … (E92Q/E138T/G140S/Q148H)”) in series [3] is 4.2.
Molecule `CCN1C(=O)c2c(O)c(=O)c(C(=O)NCc3c(F)cc(F)cc3F)cn2N2[C@H](COC)CC[C@@H]12` [II-093] registered a Remaining percentage in series [1] of 96.1%. Also, in series [2], the “FC … (E138K/G140S/Q148H/N155H)” value is 49. The EC50 in the series on HIV (setting [4]) stood at 0.22 nM. Further, the “FC … (E92Q/E138T/G140S/Q148H)” value in series [3] stood at 25.
`CN1C(=O)c2c(O)c(=O)c(-c3nnc(Cc4ccc(F)cc4F)s3)cn2N2CCOC[C@@H]12` [II-102] showed a Remaining percentage in series [1] of 106%. In addition, the “FC … (E138K/G140S/Q148H/N155H)” value in series [2] is reported as 25. Also, in the series with HIV (setting [4]), the EC50 turned out to be 1.3 nM. Besides, the “FC … (E92Q/E138T/G140S/Q148H)” value in series [3] came to 22.
In the case of `CCN1C(=O)c2c(O)c(=O)c(-c3nnc(Cc4c(F)cc(F)cc4F)s3)cn2N2C[C@@H](C)C[C@@H]12` [II-112], the Remaining percentage in series [1] is listed as 90.5%. For the same molecule, the “FC … (E138K/G140S/Q148H/N155H)” value in series [2] came out at 4.7. The EC50 with HIV (setting [4]) was found to be 1.9 nM. The “FC … (E92Q/E138T/G140S/Q148H)” value in series [3] is on record as 7.
`C[C@@H]1CC[C@H]2N(C)C(=O)c3c(O)c(=O)c(-c4nnc(Cc5ccc(F)cc5F)s4)cn3N12` [II-113] displayed a Remaining percentage in series [1] of 85.3%. The “FC … (E138K/G140S/Q148H/N155H)” value in series [2] was 7.2. In the series on HIV (setting [4]), the EC50 is 0.66 nM. Moreover, in series [3], the “FC … (E92Q/E138T/G140S/Q148H)” value is reported as 6.5.
For `CN1C(=O)c2c(O)c(=O)c(-c3nnc(Cc4cccc(Cl)c4F)s3)cn2N2CCOC[C@@H]12` [II-122], the Remaining percentage in series [1] was determined as 102%. The “FC … (E138K/G140S/Q148H/N155H)” value in series [2] stood at 30. Moreover, in the series on HIV (setting [4]), the EC50 turned out to be 0.24 nM. In series [3], the “FC … (E92Q/E138T/G140S/Q148H)” value was 25.
For `C[C@@H]1CCC[C@H]2N(C)C(=O)c3c(O)c(=O)c(-c4nnc(Cc5ccc(F)cc5F)s4)cn3N12` [II-124], in that order: 103%, 6.8, 3.5 nM and 11.
The molecule `CCN1C(=O)c2c(O)c(=O)c(-c3nnc(Cc4c(F)cc(F)cc4F)s3)cn2N2[C@H](C)CCC[C@@H]12` [II-125] yielded a Remaining percentage in series [1] of 88.5%. In series [2], the “FC … (E138K/G140S/Q148H/N155H)” value is reported as 11. For the same molecule, the EC50 in the series on HIV (setting [4]) worked out at 1.4 nM. Further, in series [3], the “FC … (E92Q/E138T/G140S/Q148H)” value amounted to 26.
On to `CCN1C(=O)c2c(O)c(=O)c(-c3nnc(Cc4c(F)cc(F)cc4F)s3)cn2N2C[C@@H]3CC[C@@H](O3)[C@@H]12` [II-126], for which the Remaining percentage in series [1] was determined as 97.2%. In addition, the “FC … (E138K/G140S/Q148H/N155H)” value in series [2] is 17. In addition, in the series on HIV (setting [4]), the EC50 was 0.6 nM. Besides, the “FC … (E92Q/E138T/G140S/Q148H)” value in series [3] is 20.
As for `Cc1ccc(-c2c([C@H](OC(C)(C)C)C(=O)O)c(C)c3c4c2cc(C)n4CCN3C)cc1` [I′-001], in the series with HIV (setting [5]), the EC50 is 0.69 nM.
On to `Cc1ccc(-c2c([C@H](OC(C)(C)C)C(=O)O)c(C)c3c4c2cc(C)n4CCN3CCN(C)C)cc1` [I′-027], for which the EC50 in the series on HIV (setting [5]) turned out to be 9.9 nM.
On the same count and under the same terms, for `COCC[C@H]1Cn2c(C)cc3c(-c4ccc(Cl)cc4)c([C@H](OC(C)(C)C)C(=O)O)c(C)c(c32)N1S(C)(=O)=O` [I′-043] the value was 1.4 nM; for `COc1cnc(N2CCn3c(C)cc4c(-c5ccc(C)cc5)c([C@H](OC(C)(C)C)C(=O)O)c(C)c2c43)nc1` [I′-189], 1.6 nM.
On to `Cc1ccc(-c2c([C@H](OC(C)(C)C)C(=O)O)c(C)c3c4c2cc(C)n4CCN3c2ncc(OCCN(C)C)cn2)cc1` [I′-220], for which, in the series on HIV (setting [5]), the EC50 was 5.9 nM.
Turning to `Cc1ccc(-c2c([C@H](OC(C)(C)C)C(=O)O)c(C)c3c4c2cc(C)n4CCN3c2nc3c(s2)CCN(C)C3)cc1` [I′-292], in the series with HIV (setting [5]), the EC50 amounted to 2.5 nM.
For the molecule `Cc1ccc(-c2c([C@H](OC(C)(C)C)C(=O)O)c(C)c3c4c2cc(C)n4CCN3c2ncc(CN(C)C)cn2)cc1` [I′-304], the EC50 with HIV (setting [5]) worked out at 4.1 nM.
